# Where two headings read alike, the source gives them in different places.
# Columns and labels:
# [1] = target: T1, A-isoform of the human α1-AR (CHO-α1) (Homo sapiens, UniProt P35348); assay: Intracellular calcium (Cai) mobilization in CHO-α1 cells; type: cell-based
# T1 construct: expressed in transfected cells; host or cells: CHO (Chinese hamster ovary) cells, stably transfected
# T1 sequence (P35348 1-466): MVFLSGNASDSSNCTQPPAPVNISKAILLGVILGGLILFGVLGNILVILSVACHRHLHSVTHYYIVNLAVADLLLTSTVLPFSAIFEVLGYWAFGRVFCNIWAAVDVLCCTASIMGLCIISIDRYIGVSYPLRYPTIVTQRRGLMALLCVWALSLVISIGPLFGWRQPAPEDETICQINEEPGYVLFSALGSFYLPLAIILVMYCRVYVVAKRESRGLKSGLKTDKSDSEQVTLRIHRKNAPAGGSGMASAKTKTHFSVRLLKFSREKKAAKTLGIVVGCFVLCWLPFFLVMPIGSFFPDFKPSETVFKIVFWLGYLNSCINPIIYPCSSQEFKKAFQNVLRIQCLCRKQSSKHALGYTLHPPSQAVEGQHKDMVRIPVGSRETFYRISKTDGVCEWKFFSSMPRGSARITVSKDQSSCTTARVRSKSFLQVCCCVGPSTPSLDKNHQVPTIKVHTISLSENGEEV
# Experimental: The data represent mean values of independent measurements of three individual cell populations. A: Time dependence of Cai mobilization by patient IgG compared to the α1-AR agonist phenylephrine (PE). The addition of patient IgG preparation and PE is indicated by the arrow. The additions were (▴) 2.5 μg patient IgG; (▪) 5 μg patient IgG; (●) 5 μM PE. B: Effect of 5 μg human control IgG (Δ) and 5 μg patient IgG (♦) on Cai mobilization. The addition of IgG preparations is indicated by the arrow. C: Inhibitory effect of preincubation of patient IgG with the free α1-AR loop1 peptide. Patient IgG was preincubated with 0.25 μM peptide for 15 minutes before addition to the cells. Peak values (five of each individual measurement) were taken for assessing the decrement in Cai mobilization. […]
# The potential of patients IgG fractions to mobilise intracellular calcium (Cai) was assessed using Chinese hamster ovary cells stably transfected with the A-isoform of the human α1-AR (CHO-α1). The cells were trypsinized and plated on black clear bottom 96-well plates suited for fluorescence measurements (Greiner) at a density of 30 000 cells per well. […] Cai was measured on a Perkin Elmer Victor X2 fluorescence multiplate reader equipped with an injector unit. The cells were excited at wave lengths alternating between 340 nm and 380 nm and the fluorescence signal emitted at 510 nm was recorded. […]
# [2] = tested on: spontaneously contracting neonatal cardiomyocytes; assay: Cardiomyocyte contraction bioassay: chronotropic response to patient IgG after preincubation with receptor loop peptides; type: cell-based, rat; details: IgG from three AD/vascular dementia patients preincubated 1 hour at 4° C. with 1 μg peptide per 1 μg IgG protein
# Experimental: Cultures of neonatal cardiomyocytes were prepared from new-born, one to three days old rats essentially as described in [15]. Chinese hamster ovary cells stably transfected with the A-isoform of the human α1-AR (CHO-α1) were grown in F12 HAM medium supplemented with glutamine, 10% FCS and 1% penicillin streptomycin at 37° C. and 5% CO2.
# Functional autoantibodies were detected utilizing the chronotropic responses of cultivated spontaneously contracting neonatal cardiomyocytes. For monitoring the contraction rate of neonatal cardiomyocytes a standardized bioassay based on computer-assisted recording of the contraction rate was employed.
# Immunoglobulin (IgG) fractions from serum samples were prepared according to a standard procedure as described in [6]. Patients IgG were added to cultures of neonatal cardiomyocytes to a final dilution of 1:40. After incubation at 37° C. for 60 minutes, the pulsation rate was measured. A total of up to 30 cells or cell clusters for each sample of a given immunoglobulin fraction was analysed. The chronotropic response to the exposition to patient IgG compared to preceding control recordings is given as increases in the number of contractions per minute. Identification of the target GPCR type was performed using specific receptor antagonists, 10^-7 M prazosin to block the α1-AR and 10^-7 M ICI […] for the β2-AR.
# For mapping of the target site of agonistic autoantibodies on the receptor, IgG fractions were preincubated for 1 hour at 4° C. with an excess of synthetic peptides corresponding to amino acid sequences of the extracellular loop1 (LGYWAFGRVFCN) or the extracellular loop2 (PAPEDETICQINEE) of the human α1-AR (1 μg peptide per 1 μg IgG protein).
# [3] = target: patient IgG (agAAB to the α1-AR); assay: ELISA competition of patient IgG binding to the immobilized peptide by free α1-AR loop1 peptide; set-up: species or system human; details: free peptide 0.3 nM up to 5 μM, patient IgG preincubated with free peptide 15 minutes, nonlinear regression, read-out: EC50 value, competition of IgG binding to the immobilized peptide by soluble α1-AR loop 1 peptide
# Experimental: Shown are data from representative experiments run in triplicates. Values are corrected for unspecific binding. A: Dependence of antibody binding on patient IgG protein. The given amount of IgG protein refers to 100 μl reaction volume (□) binding in the presence of 0.15 M NaCl; (●) binding in the presence of 0.5 M NaCl. B: Time-dependence of antibody binding. C: Competition of binding by increasing concentrations of the free α1-AR loop1 peptide. Concentrations of the free peptide ranged from 0.3 nM to 5.0 μM. The patient IgG was preincubated with the free peptide in solution for 15 minutes.
# The binding of agonistic IgG preparations was characterized using standard ELISA techniques. Briefly, biotinylated peptides corresponding to either the first or the second extracellular loop of the human α1A-AR were coupled to pre-blocked streptavidin-coated 96-well plates (Pierce). All experimental steps were performed at room temperature. If not indicated otherwise, 5 μg of IgG protein was used and the incubation time was 30 minutes. As secondary antibody anti-human horseradish conjugated anti-IgG was used. The antibody binding was visualized by the 1-Step Ultra TMB ELISA (Thermo Scientific). The optical density was quantified at 450 nm using a SLT Spectra multiplate reader (TECAN).
Sequence,"Effect of the peptide itself on Cai ([1]; CHO-α1 cells, peptide alone)","Effect of peptide preincubation on elevation of Cai by patient IgG ([1]; patient IgG preincubated with 0.25 μM peptide for 15 minutes, p<0.01)",Effect of peptide preincubation on chronotropic response to patient IgG [2],Effect of peptide preincubation on chronotropic response to patient IgG ([2]; listed as L1 peptide),EC50 ([3]; listed as extracellular loop1 peptide) [µM],EC50 ([3]; listed as α1-AR loop 1 peptide) [µM]
"LGYWAFGRVFCN [loop1 peptide, synthetic peptide corresponding to extracellular loop1 of the human α1-AR]",no effect,reduced significantly,nearly abolished,abolished,0.03,~0.03
"PAPEDETICQINEE (listed as Homo sapiens) [loop2 peptide, synthetic peptide corresponding to extracellular loop2 of the human α1-AR]",–,–,did not affect,–,–,–

# — US9708372B2, “Agonistic autoantibodies to the alpha1-adrenergic receptor and the beta2-adrenergic receptor in Alzheimer's and vascular dementia” (E.R.D.E.-AAK-DIAGNOSTIK GMBH, priority 2011, dated 2017)
